From PubChem BioAssay AID1963853 (Molecular Pharmacology Branch, DTP, NCI, 2024)
Values joined by “and” are separate entries in the source; they are usually repeats but may differ in a detail not shown here. Equal entries are not always repeated.

System: 266295-075-R-J1-PDC spheroid viability
Assay: Anticancer human tumor 266295-075-R-J1-PDC patient-derived head and neck squamous carcinoma cell line growth inhibition [POLQ]
Conditions: spheroids with HUVEC and MSC; for viability, T/C: stronger effect = lower value
Procedure: Multicellular complex tumor spheroid response to Polymerase (POL) inhibitors (novobiocin, ART-558, RP6685) in combination with a variety of drugs and investigational agents in selected tumor cell lines
The POL inhibitors (novobiocin, ART-558, and RP6685) were evaluated both individually and in combination with standard of care and investigational anticancer small molecules within a complex spheroid model of solid tumors. . Complex spheroids include a stromal component modeled by human endothelial cells (HUVEC) and fibroblasts modeled by human mesenchymal stem cells (MSCs). The concentration ranges selected for each drug and investigational agent were based upon clinically achievable concentrations if the clinical Cmax of the agent was known.
Compounds. The drugs and investigational agents: novobiocin (NSC847541), ART-558 (NSC835418), RP-6685 (NSC848927), peposertib (NSC802822), ceralasertib (NSC780249), elimusertib (NSC800525), camonsertib (NSC841442), AZD-1390 (NSC803789), olaparib (NSC753686), talazoparib (NSC767125), rucaparib (NSC756644), sotorasib (NSC818433), MRTX-1133 (NSC836407), SN-38 (NSC673596), topotecan (NSC609699), epotoside (NSC141540), doxorubicin (NSC123127), gemcitabine (NSC613327), 5-fluorouracil (NSC19893), paclitaxel (NSC125973), vemurafenib (NSC761431), MSA-2 (NSC828583), SN-011 (NSC837082), adavosertib (NSC754352), prexasertib (NSC758257), carboplatin (NSC241240) and oxaliplatin (NSC266046), were obtained from the National Cancer Institute (NCI) Developmental Therapeutics Program Chemical Repository (21). The FDA-approved anticancer drug set is available from the Developmental Therapeutics Program at https://dtp.cancer.gov/organization/dscb/obtaining/. […] The stock solutions were prepared in dimethyl sulfoxide (DMSO, Sigma-Aldrich, St. Louis, MO, cat. D2650), except for the platinum compounds which were prepared in saline (Quality Biological, Gaithersburg, MD, cat. 114-055-101), at 800-fold the tested concentration and stored at -70 degrees C prior to their use. All drugs and investigational agents were tested over a range starting from a high concentration at or near the clinical Cmax and decreasing in half-log increments. If the clinical Cmax for an agent had not been determined, the highest concentration tested was 10 microM, except for SN-38, which was tested at a high concentration of 1 microM.
Cell Culture. All cells were maintained in an incubator at 37 degrees C and 5% CO2 with 95% humidity. The PDC lines were cultured according to standard operating procedures established by the NCI PDMR (https://pdmr.cancer.gov). Table 3 of the manuscript, lists the cell lines along with the number of the three cell types plated to form the mct-spheroids and media for tumor cell growth. After thawing, all PDC lines, except 997537-175-T-J1-PDC and 415267-285-R-J2-PDC, were cultured in Matrigel-coated flasks prepared with a working solution of 1X Ham's F-12 nutrient mix, without supplementation (Thermo Fisher Scientific, cat. 11765054), 100 U/mL penicillin-streptomycin (Thermo Fisher Scientific, cat. 15140122), and 2.5% Matrigel (Corning Inc., Corning, NY, cat. 354248) for the first three passages. The two PDC lines 997537-175-T-J1-PDC and 415267-285-R-J2-PDC were cultured on uncoated flasks. The 857933-349-R-J2-PDC line was cultured in 6C/Colon 1B media containing advanced DMEM/F-12 (Thermo Fisher Scientific, cat. 12634028), 10 mM HEPES (Thermo Fisher Scientific, cat. 15630080), 1X GlutaMAX supplement (Thermo Fisher Scientific, cat. 35050061), 0.1 mg/mL primocin (InvivoGen, San Diego, CA, cat. ant-pm-2), 10% defined fetal bovine serum, heat inactivated (HyClone Laboratories Inc., Logan, UT, cat. SH30070.03HI), 50% L-WRN conditioned media (ATCC, cat. CRL-3276), 1.25 mM N-Acetyl-L-cysteine (Sigma-Aldrich, cat. A9165), 10 mM nicotinamide (Sigma-Aldrich, cat. N0636), 1X B-27 supplement (Thermo Fisher Scientific, cat. 17504044), 1X N-2 supplement (Thermo Fisher Scientific, cat. […]

[1] = curve of first compound, second compound 0.0316 µM
[2] = curve of first compound, second compound 0.1 µM
[3] = curve of first compound, second compound 0.316 µM
[4] = curve of first compound, second compound 1 µM
[5] = curve of first compound, second compound 3.16 µM
[6] = curve of first compound, second compound 10 µM
[7] = second compound 0.0316 µM, first compound 0.0316 µM
[8] = second compound 0.0316 µM, first compound 0.1 µM
[9] = second compound 0.0316 µM, first compound 0.316 µM
[10] = second compound 0.0316 µM, first compound 1 µM
[11] = second compound 0.0316 µM, first compound 3.16 µM
[12] = second compound 0.0316 µM, first compound 10 µM
[13] = second compound 0.1 µM, first compound 0.0316 µM
[14] = second compound 0.1 µM, first compound 0.1 µM
[15] = second compound 0.1 µM, first compound 0.316 µM
[16] = second compound 0.1 µM, first compound 1 µM
[17] = second compound 0.1 µM, first compound 3.16 µM
[18] = second compound 0.1 µM, first compound 10 µM
[19] = second compound 0.316 µM, first compound 0.0316 µM
[20] = second compound 0.316 µM, first compound 0.1 µM
[21] = second compound 0.316 µM, first compound 0.316 µM
[22] = second compound 0.316 µM, first compound 1 µM
[23] = second compound 0.316 µM, first compound 3.16 µM
[24] = second compound 0.316 µM, first compound 10 µM
[25] = second compound 1 µM, first compound 0.0316 µM
[26] = second compound 1 µM, first compound 0.1 µM
[27] = second compound 1 µM, first compound 0.316 µM
[28] = second compound 1 µM, first compound 1 µM
[29] = second compound 1 µM, first compound 3.16 µM
[30] = second compound 1 µM, first compound 10 µM
[31] = second compound 3.16 µM, first compound 0.0316 µM
[32] = second compound 3.16 µM, first compound 0.1 µM
[33] = second compound 3.16 µM, first compound 0.316 µM
[34] = second compound 3.16 µM, first compound 1 µM
[35] = second compound 3.16 µM, first compound 3.16 µM
[36] = second compound 3.16 µM, first compound 10 µM
[37] = second compound 10 µM, first compound 0.0316 µM
[38] = second compound 10 µM, first compound 0.1 µM
[39] = second compound 10 µM, first compound 0.316 µM
[40] = second compound 10 µM, first compound 1 µM
[41] = second compound 10 µM, first compound 3.16 µM
[42] = second compound 10 µM, first compound 10 µM
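Further: spheroids exposed to compounds for seven days before readout.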

CC1COCCN1c1cc(C2(O)CC3CCC(C2)O3)c2cnn(-c3ccn[nH]3)c2n1 (stereo not drawn) + Nc1ccc(C#CCN(C(=O)Cc2ncc(C(F)(F)F)cc2C(F)(F)F)c2ccc(F)cc2)nn1
IC50 [1]: 996 nM
IC50 [2]: 591 nM
IC50 [3]: 324 nM
IC50 [4]: 903 nM
IC50 [5]: 831 nM
IC50 [6]: 706 nM
viability, T/C [7]: 80.4%
viability, T/C [8]: 112%
viability, T/C [9]: 67.6%
viability, T/C [10]: 54.4%
viability, T/C [11]: 42.5%
viability, T/C [12]: 32.3%
viability, T/C [13]: 96.9%
viability, T/C [14]: 85.9%
viability, T/C [15]: 53.5%
viability, T/C [16]: 46.6%
viability, T/C [17]: 39.2%
viability, T/C [18]: 29.9%
viability, T/C [19]: 94.9%
viability, T/C [20]: 100%
viability, T/C [21]: 50.2%
viability, T/C [22]: 51.2%
viability, T/C [23]: 38.3%
viability, T/C [24]: 26.9%
viability, T/C [25]: 86.2%
viability, T/C [26]: 66.3%
viability, T/C [27]: 63.1%
viability, T/C [28]: 46.9%
viability, T/C [29]: 42.5%
viability, T/C [30]: 25.7%
viability, T/C [31]: 83.9%
viability, T/C [32]: 84.1%
viability, T/C [33]: 63.7%
viability, T/C [34]: 46.8%
viability, T/C [35]: 36.8%
viability, T/C [36]: 27.8%
viability, T/C [37]: 78.4%
viability, T/C [38]: 75.7%
viability, T/C [39]: 69.8%
viability, T/C [40]: 41.2%
viability, T/C [41]: 30.2%
viability, T/C [42]: 26.7%

CC[C@@]1(O)C(=O)OCc2c1cc1n(c2=O)Cc2cc3c(CN(C)C)c(O)ccc3nc2-1
viability, T/C (compound 0.000316 µM): 80.3% and 92.4% and 96.2%
viability, T/C (compound 0.001 µM): 96.8% and 98.5% and 96.1%
viability, T/C (compound 0.00316 µM): 80.3% and 78.6% and 92.5%
viability, T/C (compound 0.01 µM): 80.8% and 95.8% and 96.8%
viability, T/C (compound 0.0316 µM): 89.2% and 93.9% and 103%
viability, T/C (compound 0.1 µM): 82.4% and 82.3% and 87.1%
IC50 (curve of compound): > 100 nM

CCc1c2c(nc3ccc(O)cc13)-c1cc3c(c(=O)n1C2)COC(=O)[C@]3(O)CC
viability, T/C (compound 0.00316 µM): 84.2% and 91.3% and 93.2%
viability, T/C (compound 0.01 µM): 77.4% and 78.1% and 89.5%
viability, T/C (compound 0.0316 µM): 71.7% and 92.1% and 88.6%
viability, T/C (compound 0.1 µM): 87% (2×) and 97.7%
viability, T/C (compound 0.316 µM): 95.2% and 104% and 109%
viability, T/C (compound 1 µM): 71.8% (2×) and 91.9%
IC50 (curve of compound): > 1000 nM

COC1C(OC(N)=O)C(O)C(Oc2ccc3c(O)c(NC(=O)c4ccc(O)c(CC=C(C)C)c4)c(=O)oc3c2C)OC1(C)C (stereo not drawn)
viability, T/C (compound 0.0316 µM): 101% [middle of 13 runs]
viability, T/C (compound 1 µM): 101% [middle of 13 runs]
IC50 (compound alone, run of 10/31/2023): > 10000 nM

COc1cc(C2c3cc4c(cc3C(OC3OC5COC(C)OC5C(O)C3O)C3COC(=O)C23)OCO4)cc(OC)c1O (stereo not drawn) + COC1C(OC(N)=O)C(O)C(Oc2ccc3c(O)c(NC(=O)c4ccc(O)c(CC=C(C)C)c4)c(=O)oc3c2C)OC1(C)C
IC50 [1]: > 10000 nM
IC50 [2]: > 10000 nM
IC50 [3]: > 10000 nM
IC50 [4]: > 10000 nM
IC50 [5]: > 10000 nM
IC50 [6]: > 10000 nM
viability, T/C [7]: 81.4%
viability, T/C [8]: 118%
viability, T/C [9]: 93.5%
viability, T/C [10]: 89.6%
viability, T/C [11]: 89.1%
viability, T/C [12]: 76.9%
viability, T/C [13]: 88.7%
viability, T/C [14]: 105%
viability, T/C [15]: 110%
viability, T/C [16]: 83.2%
viability, T/C [17]: 85.1%
viability, T/C [18]: 77.4%
viability, T/C [19]: 90.1%
viability, T/C [20]: 98.5%
viability, T/C [21]: 89.8%
viability, T/C [22]: 87%
viability, T/C [23]: 83.3%
viability, T/C [24]: 82%
viability, T/C [25]: 101%
viability, T/C [26]: 92.1%
viability, T/C [27]: 86.3%
viability, T/C [28]: 96.9%
viability, T/C [29]: 91.1%
viability, T/C [30]: 72.2%
viability, T/C [31]: 102%
viability, T/C [32]: 91.2%
viability, T/C [33]: 114%
viability, T/C [34]: 94.7%
viability, T/C [35]: 99%
viability, T/C [36]: 83%
viability, T/C [37]: 116%
viability, T/C [38]: 116%
viability, T/C [39]: 120%
viability, T/C [40]: 92.4%
viability, T/C [41]: 110%
viability, T/C [42]: 80.5%

CCc1cc2c(N3CCc4c(cc(Cn5ccnc5)cc4-c4cn(C)nc4C(F)(F)F)C3=O)cc(C)nc2c(OC)n1 + Cc1cccc(N(C)C(=O)C2C(O)CCN2c2nc(C)cc(C(F)(F)F)c2C#N)c1
IC50 [1]: > 10000 nM
IC50 [2]: > 10000 nM
IC50 [3]: > 10000 nM
IC50 [4]: > 10000 nM
IC50 [5]: > 10000 nM
IC50 [6]: > 10000 nM
viability, T/C [7]: 72.8%
viability, T/C [8]: 89%
viability, T/C [9]: 81.6%
viability, T/C [10]: 111%
viability, T/C [11]: 130%
viability, T/C [12]: 120%
viability, T/C [13]: 102%
viability, T/C [14]: 90.4%
viability, T/C [15]: 101%
viability, T/C [16]: 110%
viability, T/C [17]: 89.3%
viability, T/C [18]: 114%
viability, T/C [19]: 97.7%
viability, T/C [20]: 105%
viability, T/C [21]: 102%
viability, T/C [22]: 122%
viability, T/C [23]: 131%
viability, T/C [24]: 123%
viability, T/C [25]: 87.1%
viability, T/C [26]: 88.4%
viability, T/C [27]: 102%
viability, T/C [28]: 98.5%
viability, T/C [29]: 135%
viability, T/C [30]: 121%
viability, T/C [31]: 83.7%
viability, T/C [32]: 102%
viability, T/C [33]: 117%
viability, T/C [34]: 109%
viability, T/C [35]: 138%
viability, T/C [36]: 137%
viability, T/C [37]: 101%
viability, T/C [38]: 93.2%
viability, T/C [39]: 111%
viability, T/C [40]: 127%
viability, T/C [41]: 122%
viability, T/C [42]: 145%
